Assay results: US20210261528A1, “SALTS OF (S)-(5-CYCLOBUTOXY-2-METHYL-6-(1-(PIPERIDIN-4-YL)-1H-PYRAZOL-4-YL)-3,4-DIHYDROQUINOLIN-1(2H)-YL)(CYCLOPROPYL)METHANONE AND SOLID FORMS THEREOF” (FORMA Therapeutics, Inc., priority 2018, published 2021)
“And” between values parts separate entries of the source, which are not always exact repeats. Identical values can stand only once. “Also recorded” adds a separate entry of the source.

Legend:
Assay type in all cases: physicochemical
[1] = Chemical stability by HPLC-UV at 275 nm and 254 nm (Table 9)
Protocol: High Pressure Liquid Chromatography (HPLC) data were obtained according to Tables 6 or 7, below:
A standard stock was dissolved with diluent in a volumetric flask (e.g., 25 mg in 25 mL). This stock was vortexed and sonicated 10 sec to dissolve, and then diluted 1:10, 1:4, and 1:2 either in volumetric flasks or in HPLC vials to generate a standard curve. […] Where appropriate, a blank was created to accurately replicate the matrix of the analytical sample, and peaks appearing in the blank were identified before integration and quantification using Chemstation software.
The chemical stability of Succinate Form A was determined using HPLC-UV at 275 nm and 254 nm.
The chemical stability of Form G was determined using HPLC-UV at 275 nm and 254 nm.

[2] = Hygroscopicity evaluation by Dynamic Vapor Sorption (DVS) with XRPD of the solids after DVS; details: for behaviour at high humidity (DVS): >60% RH; for behaviour at high humidity (DVS) / hygroscopicity (DVS): 25° C.; for solid form after the DVS test: XRPD of solids after DVS; for hygroscopicity (DVS): absorption up to 80% RH
Protocol: Dynamic Vapor Sorption (DVS) was obtained using a Surface Measurement Systems (SMS) DVS Intrinsic. The relative humidity at 25° C. were calibrated against deliquescence point of LiCl, Mg (NO3)2 and KCl.

[3] = Slurry turnover of Compound 2 Form B, Form I and Form G (Example 11, Table 25); details: 24 hours
Protocol: To further study the form identity of Form B and Form I, slurry turnover experiments were performed in two solvents with the addition of Form G. Form B was dissolved in IPAc and MTBE respectively to get saturated solutions. Similar mass of Form B, G and I were weighed into a 2-mL vial, upon which the corresponding saturated solution was added to give the slurry, which was stirred at RT or 50° C. After slurry for 24 hours, the solids obtained were analyzed by XRPD.

[4] = Slurry competition between Compound 2 Form G and Form O for stability evaluation (Example 10, Table 24); details: 24 hours
Protocol: The slurry competition experiments between the two anhydrates, Form G and Form O, were performed in two solvents, IPAc and MTBE, at RT and 50° C. for stability evaluation. Form O was dissolved in IPAc and MTBE respectively to get saturated solutions. Then, similar masses of Form G and Form O were added into a 2-mL vial, upon which the corresponding saturated solution was added to give the slurry, which was stirred at RT or 50° C. for 24 hours. The solids collected were analyzed by XRPD to confirm the form change.

[5] = Critical aw between Compound 2 Form G and Form I, slurry turnover in H2O/IPAc (Example 12, Table 26); details: for Final Form: 24 hrs
Protocol: To investigate the critical aw between hydrated Form I and the stable anhydrate, Form G, slurry turnover of Form I and Form G was conducted in a co-solvent system (H2O/IPAc) with different aw at RT and 50° C. Similar mass of Form G and Form I were added into a 2-mL vial, followed by adding solvent and stirring at RT or 50° C. for 24 hrs. The solids obtained were analyzed by XRPD to confirm the form change.

[6] = Aqueous solubility estimation of Compound 2 Form G, Form O and Form I at RT (Example 13, Table 27); details: for Observation Initial / Observation 2 hrs: about 3 mg in 50 μL water; for Observation 2 hrs: stirred 2 hrs
Protocol: Aqueous solubility tests at RT were conducted on the two potential anhydrates, Form G and O, and the hydrated Form I. About 3 mg of each form was weighed into a 2-mL vial. […] of water was added and stirred thoroughly at RT with the speed of 800 RPM.

Question: Which results are given for `C[C@H]1CCc2c(ccc(-c3cnn(C4CCNCC4)c3)c2OC2CCC2)N1C(=O)C1CC1.O=C(O)CCC(=O)O` [A]?
Answer: % Claim (275 nm) ([1]; 25° C./60% RH): 98.3% and 99.8%; % Purity (275 nm) ([1]; 25° C./60% RH): 98.64% and 98.78%; % Claim (275 nm) ([1]; initial): 95.2%; % Purity (275 nm) ([1]; initial): 98.73%

Question: Which “behaviour at high humidity (DVS)” value [2] does the source give for `C[C@H]1CCc2c(ccc(-c3cnn(C4CCNCC4)c3)c2OC2CCC2)N1C(=O)C1CC1.O=C(O)CCCCC(=O)O` [Adipate Form A] here?
Answer: Its value is “deliquescent”.

Question: What about the “solid form after the DVS test” value [2] of the same compound?
Answer: Its value is “amorphous or jelly solids”.

Question: For `C[C@H]1CCc2c(ccc(-c3cnn(C4CCNCC4)c3)c2OC2CCC2)N1C(=O)C1CC1.O=C(O)CCC(=O)O` [Form B, (S)-(5-cyclobutoxy-2-methyl-6-(1-(piperidin-4-yl)-1H-pyrazol-4-yl)-3,4-dihydroquinolin-1(2H)-yl)(cyclopropyl)methanone succinate], which “solid form after the DVS test” value ([2]; succinate) is on record?
Answer: The value was “amorphous”.

Question: And the “hygroscopicity (DVS)” value ([2]; succinate)?
Answer: Its value is “highly hygroscopic; also recorded: high hygroscopicity”.

Question: Which “Results (solid form after slurry turnover, XRPD)” value ([3]; IPAc, 50° C.) does the source give for `C[C@H]1CCc2c(ccc(-c3cnn(C4CCNCC4)c3)c2OC2CCC2)N1C(=O)C1CC1.O=C(O)CCC(=O)O` [Form B, G and I] here?
Answer: The value was “Form G”.

Question: What about the “Results (solid form after slurry turnover, XRPD)” value ([3]; IPAc, RT) of the same compound?
Answer: Its value is “Form G”.

Question: What about the “Results (solid form after slurry turnover, XRPD)” value ([3]; MTBE, 50° C.) of the same compound?
Answer: Its value is “Form G”.

Question: What about the “Results (solid form after slurry turnover, XRPD)” value ([3]; MTBE, RT) of the same compound?
Answer: The value was “Form G”.

Question: For `C[C@H]1CCc2c(ccc(-c3cnn(C4CCNCC4)c3)c2OC2CCC2)N1C(=O)C1CC1.O=C(O)CCC(=O)O` [Form G and Form O], which “Results (solid form after slurry competition, XRPD)” value ([4]; IPAc, 50° C.) is on record?
Answer: The value was “Form G”.

Question: And the “Results (solid form after slurry competition, XRPD)” value ([4]; IPAc, RT)?
Answer: Its value is “Form G”.

Question: And the “Results (solid form after slurry competition, XRPD)” value ([4]; MTBE, 50° C.)?
Answer: The value was “Form G”.

Question: And the “Results (solid form after slurry competition, XRPD)” value ([4]; MTBE, RT)?
Answer: Its value is “Form G”.

Question: With `C[C@H]1CCc2c(ccc(-c3cnn(C4CCNCC4)c3)c2OC2CCC2)N1C(=O)C1CC1.O=C(O)CCC(=O)O` [Form I and Form G] as the compound, how does the “Final Form” value ([5]; H2O/IPAc (2.8:997.2, aw 0.18), 50° C.) read?
Answer: The value was “Form G”.

Question: And the “Final Form” value ([5]; H2O/IPAc (2.8:997.2, aw 0.20), RT)?
Answer: The value was “Form G”.

Question: And the “Final Form” value ([5]; H2O/IPAc (6:994, aw 0.36), 50° C.)?
Answer: Its value is “Form G”.

Question: And the “Final Form” value ([5]; H2O/IPAc (6:994, aw 0.40), RT)?
Answer: Its value is “Form G”.

Question: What about the “Final Form” value ([5]; H2O/IPAc (10:990, aw 0.55), 50° C.) of the same compound?
Answer: Its value is “Form G”.

Question: What about the “Final Form” value ([5]; H2O/IPAc (10:990, aw 0.59), RT) of the same compound?
Answer: Its value is “Form G”.

Question: And the “Final Form” value ([5]; IPAc, 50° C.)?
Answer: Its value is “Form G”.

Question: What about the “Final Form” value ([5]; IPAc, RT) of the same compound?
Answer: The value was “Form G”.

Question: For `C[C@H]1CCc2c(ccc(-c3cnn(C4CCNCC4)c3)c2OC2CCC2)N1C(=O)C1CC1.O=C(O)CCC(=O)O` [Form I, (S)-(5-cyclobutoxy-2-methyl-6-(1-(piperidin-4-yl)-1H-pyrazol-4-yl)-3,4-dihydroquinolin-1(2H)-yl)(cyclopropyl)methanone succinate], which “solid form after the DVS test” value ([2]; succinate) is on record?
Answer: The value was “amorphous”.

Question: And the “hygroscopicity (DVS)” value ([2]; succinate)?
Answer: The value was “high hygroscopicity”.

Question: What about the “weight change before 60% RH (DVS)” value ([2]; before 60% RH) of the same compound?
Answer: The value was “minor weight change”.

Question: And the “stability under ambient conditions compared to Form G” value ([5]; different aw)?
Answer: Its value is “did not appear to have any stability”.

Question: And the “Observation Initial” value [6]?
Answer: Its value is “Little solid”.

Question: What about the “Observation 2 hrs” value [6] of the same compound?
Answer: Its value is “Clear”.

Question: What does the source list for `C[C@H]1CCc2c(ccc(-c3cnn(C4CCNCC4)c3)c2OC2CCC2)N1C(=O)C1CC1.O=C(O)CCC(=O)O` [Form M, (S)-(5-cyclobutoxy-2-methyl-6-(1-(piperidin-4-yl)-1H-pyrazol-4-yl)-3,4-dihydroquinolin-1(2H)-yl)(cyclopropyl)methanone succinate]?
Answer: solid form after the DVS test ([2]; succinate): amorphous; hygroscopicity (DVS) ([2]; succinate): highly hygroscopic; also recorded: high hygroscopicity

Question: Which results are given for `C[C@H]1CCc2c(ccc(-c3cnn(C4CCNCC4)c3)c2OC2CCC2)N1C(=O)C1CC1.O=C(O)CCC(=O)O` [Form O, (S)-(5-cyclobutoxy-2-methyl-6-(1-(piperidin-4-yl)-1H-pyrazol-4-yl)-3,4-dihydroquinolin-1(2H)-yl)(cyclopropyl)methanone succinate]?
Answer: solid form after the DVS test ([2]; succinate): amorphous; hygroscopicity (DVS) ([2]; succinate): highly hygroscopic; also recorded: high hygroscopicity; Observation Initial [6]: Little solid; Observation 2 hrs [6]: Clear; solubility at 2 h ([6]; thermodynamic from solid, water, stirring 2 hrs at 800 RPM): > 60 mg/mL

Question: Which results are given for `C[C@H]1CCc2c(ccc(-c3cnn(C4CCNCC4)c3)c2OC2CCC2)N1C(=O)C1CC1.O=C(O)/C=C/C(=O)O` [Fumarate Form A]?
Answer: behaviour at high humidity (DVS) [2]: deliquescent; solid form after the DVS test [2]: amorphous or jelly solids

Question: For `C[C@H]1CCc2c(ccc(-c3cnn(C4CCNCC4)c3)c2OC2CCC2)N1C(=O)C1CC1.O=C(O)/C=C/C(=O)O` [Fumarate Form B], which “behaviour at high humidity (DVS)” value [2] is on record?
Answer: Its value is “deliquescent”.

Question: And the “solid form after the DVS test” value [2]?
Answer: The value was “amorphous or jelly solids”.

Question: Which “behaviour at high humidity (DVS)” value [2] does the source give for `C[C@H]1CCc2c(ccc(-c3cnn(C4CCNCC4)c3)c2OC2CCC2)N1C(=O)C1CC1.O=C(O)/C=C/C(=O)O` [Fumarate Form C] here?
Answer: Its value is “deliquescent”.

Question: And the “solid form after the DVS test” value [2]?
Answer: The value was “amorphous or jelly solids”.

Question: Which “% Claim (275 nm)” value ([1]; 25° C./60% RH) does the source give for `C[C@H]1CCc2c(ccc(-c3cnn(C4CCNCC4)c3)c2OC2CCC2)N1C(=O)C1CC1.O=C(O)CCC(=O)O` [G] here?
Answer: Its value is 104% and 106% and 107% and 103%.

Question: What about the “% Purity (275 nm)” value ([1]; 25° C./60% RH) of the same compound?
Answer: Its value is 98.84% and 98.86%.

Question: And the “% Claim (275 nm)” value ([1]; 40° C./75% RH)?
Answer: The value was 106% and 96.3% and 101%.

Question: What about the “% Purity (275 nm)” value ([1]; 40° C./75% RH) of the same compound?
Answer: The value was 98.51% and 98.33% and 97.37% and 96.72%.

Question: What about the “% Claim (275 nm)” value ([1]; 50° C.) of the same compound?
Answer: Its value is 100% and 101% and 104%.

Question: And the “% Purity (275 nm)” value ([1]; 50° C.)?
Answer: The value was 98.69% and 97.37% and 97.79%.

Question: What about the “% Claim (275 nm)” value ([1]; 50° C.*) of the same compound?
Answer: Its value is 98.1%.

Question: And the “% Purity (275 nm)” value ([1]; 50° C.*)?
Answer: Its value is 94.24%.

Question: And the “% Claim (275 nm)” value ([1]; Post DVS)?
Answer: The value was 73.5%.

Question: What about the “% Purity (275 nm)” value ([1]; Post DVS) of the same compound?
Answer: The value was 98.91%.

Question: And the “% Claim (275 nm)” value ([1]; RT)?
Answer: The value was 106% and 103% and 107%.

Question: And the “% Purity (275 nm)” value ([1]; RT)?
Answer: The value was 98.85% and 98.88% and 98.82% and 98.86%.

Question: And the “% Claim (275 nm)” value ([1]; initial)?
Answer: The value was 102%.

Question: What about the “% Purity (275 nm)” value ([1]; initial) of the same compound?
Answer: Its value is 98.84%.
